Data on 23 molecules can be found in ChEMBL document CHEMBL6153171, “Redefining Antifungal Treatment: The Innovation of Metal-Based Compounds” (2025).

Holding throughout (format): functional
Test [1] deals with Candida tropicalis. Kind of test: Anti-fungal activity against Candida tropicalis assessed as inhibition of fungal growth.
Test [2] concerns Candida tropicalis. The experiment in a line: Antifungal activity against Candida tropicalis ATCC 1369 assessed as inhibition of fungal growth by CLSI protocol based microdilution method. Background: Broth dilution looks for growth in wells or tubes with falling amounts of substance.
A further test relates to Epidermophyton floccosum. The experiment in a line: Antifungal activity against Epidermophyton floccosum.
The test system of another test is Trichophyton violaceum. The experiment in a line: Antifungal activity against Trichophyton violaceum.
Another test concerns Nakaseomyces glabratus. The experiment in a line: Antifungal activity against Candida glabrata assessed as reduction in fungal growth. Further details: concentration or dose not given beside the values.
Test [3] relates to Candida albicans. Kind of test: Antifungal activity against Candida albicans ATCC 10231 assessed as fungal growth inhibition incubated for 24 hrs by CLSI protocol based microbroth dilution assay.
Test [4] has as its system Candida albicans. The experiment in a line: Antifungal activity against Candida albicans ATCC 10231 assessed as growth inhibition measured after 48 hrs by CLSI based method.
The subject of another test is Trichophyton tonsurans. The experiment in a line: Antifungal activity against Trichophyton tonsurans.
Another test concerns Trichophyton rubrum. The experiment in a line: Antifungal activity against Trichophyton rubrum assessed as fungal growth inhibition incubated for 48 hrs by microplate reader assay.
For test [5], the system named is Trichophyton mentagrophytes. The experiment in a line: Antifungal activity against Trichophyton mentagrophytes.
Test [6] concerns Trichophyton interdigitale. The experiment in a line: Antifungal activity against Trichophyton interdigitale.
For test [7], the system named is Candida albicans. The experiment in a line: Antifungal activity against Candida albicans assessed as reduction in microbial growth.
The test system of test [8] is Candida albicans. Kind of test: Antifungal activity against fluconazole-resistant Candida albicans MFBF 11100 assessed as inhibition of fungal growth incubated for 48 hrs by liquid medium dilution method.
Test [9] concerns Candida albicans. Kind of test: Antifungal activity against fluconazole-resistant Candida albicans ATCC 10213 assessed as inhibition of fungal growth incubated for 48 hrs by liquid medium dilution method.
The test system of test [10] is Cryptococcus neoformans. Kind of test: Antifungal activity against Cryptococcus neoformans H99 assessed as reduction in fungal growth incubated for 48 hrs by liquid based microdilution method.
Test [11] is described as follows: Antifungal activity against Cryptococcus gattii VGI ATCC 14116 assessed as reduction in fungal growth incubated for 72 hrs by liquid based microdilution method.
The nature of test [12]: Antifungal activity against Cryptococcus gattii VGI ATCC LMM 818 assessed as reduction in fungal growth incubated for 72 hrs by liquid based microdilution method.
In test [13] the test system is Cryptococcus neoformans. The experiment in a line: Antifungal activity against Cryptococcus neoformans ATCC 34877 assessed as reduction in fungal growth incubated for 72 hrs by liquid based microdilution method.
Test [14] relates to Cryptococcus neoformans. Kind of test: Antifungal activity against Cryptococcus neoformans ATCC 34877 assessed as reduction in fungal growth incubated for 48 hrs by liquid based microdilution method.
Test [15] deals with Aspergillus flavus. The experiment in a line: Antifungal activity against Aspergillus flavus assessed as fungal growth inhibition.
The subject of test [16] is Candida albicans. The experiment in a line: Antifungal activity against Candida albicans assessed as fungal growth inhibition.
Test [17] relates to Aspergillus flavus. The experiment in a line: Antifungal activity against Aspergillus flavus assessed as reduction in fungal growth incubated for 24 hrs by two-fold serial dilution method. More on the design: scale not given: the % may be the effect or the level left.
Test [18] concerns Candida albicans. The experiment in a line: Antifungal activity against Candida albicans ATCC 2091 assessed as reduction in fungal growth.
The subject of another test is Microsporum canis. The experiment in a line: Antifungal activity against Microsporum canis assessed as inhibition of fungal growth. More on the design: scale not given: the % may be the effect or the level left.
Test [19] relates to Candida albicans. The experiment in a line: Antifungal activity against Candida albicans assessed as fungal growth inhibition at 5 ug/ml incubated for 24 hrs by CLSI protocol based microbroth dilution assay relative to control. More on the design: scale not given: the % may be the effect or the level left. To be noted: dose 5 µg/ml.
The subject of test [20] is Aspergillus flavus. The experiment in a line: Antifungal activity against Aspergillus flavus.
Test [21] relates to Candida albicans. The experiment in a line: Antifungal activity against Candida albicans.
For test [22], the system named is Candida albicans. The experiment in a line: Antifungal activity against Candida albicans SC5314 assessed as reduction in fungal growth incubated for 72 hrs by broth micro-dilution method.
Test [23] has as its system Aspergillus flavus. The experiment in a line: Antifungal activity against Aspergillus flavus ATCC 16870 assessed as inhibition of growth incubated for 48 hrs by two-fold serial dilution method.

The structures appear in SMILES notation. In brackets after ≈: the same amount, converted by molar mass. A value given as a limit tells only on which side of the number the result lay.

Take `Cc1ccc(-c2ccc(-c3ccccn3)nc2)cc1`: the MIC (in general, the lowest concentration that inhibits growth of the organism) with Candida tropicalis [1] was at most 12.7 µM; in the test on Candida tropicalis [2], at most 20.4 µM.

Turning to `c1ccc(-c2ccc(-c3ccccn3)nc2)cc1`, the MIC in the test on Epidermophyton floccosum and in the test with Trichophyton violaceum was 26.9 µM (≈ 6.25 µg/mL) each time.

Regarding `Cc1ccc(S(=O)(=O)Nc2ncccn2)cc1`, the Activity with Nakaseomyces glabratus is 53%.

For `C/C(=N\NC(=S)Nc1ccc(I)cc1)c1ccccn1`, the figures for the MIC with Candida albicans [3] and in the test with Candida albicans [4] were 6.2 µM (≈ 2.46 µg/mL) and 10.7 µM (≈ 4.24 µg/mL), respectively.

As to `C/C(=N\NC(=S)Nc1ccc([N+](=O)[O-])cc1)c1ccccn1`, the MIC in the test on Candida albicans [4] was 10.7 µM (≈ 3.37 µg/mL).

As to `NS(=O)(=O)c1ccc(/N=C/c2cc(Cl)ccc2O)cc1`, in the test on Nakaseomyces glabratus, the Activity is 47%.

As to `O=C(O)c1c(O)c(F)c(F)c(F)c1F`, the MIC (against Trichophyton tonsurans; in the test on Trichophyton rubrum; in test [5]; in test [6]) was 25 µg/mL (≈ 119 µM) each time.

Regarding `O=C(O)c1cc(F)c(F)c(F)c1O`, the MIC in the test on Candida albicans [7] stood at 50 µg/mL.

With `COc1ccc(/C=N/NC(=O)c2cccnc2)c(O)c1`, the figures for the IC90 in the test with Candida albicans [8] and in the test on Candida albicans [9] were 100 nM and 180 nM, respectively.

In the case of `NC(=S)N/N=C(\N)c1ccccn1`, the MIC90 – broadly, an inhibitory concentration at the 90% level, which refers to growth in some studies and to a panel of isolates in others – was found to be 13.1 µM (≈ 2.55 µg/mL) in the test on Cryptococcus neoformans [10], 26.3 µM (≈ 5.13 µg/mL) in test [11], 52.5 µM (≈ 10.3 µg/mL) in [12] and 26.3 µM (≈ 5.13 µg/mL) with Cryptococcus neoformans [13].

As for `CCNC(=S)N/N=C(\N)c1ccccn1`, the MIC90 in the test with Cryptococcus neoformans [10] is 13.1 µM (≈ 2.92 µg/mL).

Consider `CNC(=S)N/N=C(\N)c1ccccn1`, for which the MIC90 in the test with Cryptococcus neoformans [14] worked out at 2.01 µM (≈ 0.42 µg/mL); in [12], 52 µM (≈ 10.9 µg/mL); with Cryptococcus neoformans [13], 52 µM (≈ 10.9 µg/mL).

Regarding `O=c1cc(O)c2c(=O)[nH]c3ccccc3c2o1`, the figures for the MIC with Aspergillus flavus [15] and in the test with Candida albicans [16] were 226 µM (≈ 51.7 µg/mL) and 233 µM (≈ 53.4 µg/mL), respectively.

Regarding `CCCN(CCC)C(=S)NC(=O)c1ccc(Br)o1`, the results for the Activity in the test on Aspergillus flavus [17] and in the test with Nakaseomyces glabratus were 52% and 42%, respectively.

As for `O=C1N[C@@H](Cc2ccc(/N=C/c3ccccc3O)cc2)CO1`, the MIC with Candida albicans [18] was 12.5 µg/mL (≈ 42.2 µM).

For the molecule `CCN(C(=S)NC(=O)c1ccc(Br)o1)C(C)C`, the Activity in the test with Aspergillus flavus [17] is given as 50%.

For the molecule `CCCN(CCC)C(=S)NC(=O)c1ccc(C)s1`, in the test with Microsporum canis, the Activity worked out at 63%.

In the case of `CNCCC/N=C/c1c(O)ccc2c(C)cc(=O)oc12`, in the test with Candida albicans [18], the minimal inhibitory concentration (MIC) amounted to 12.5 µg/mL (≈ 45.6 µM).

Regarding `CCCN(CCC)C(=S)NC(=O)c1cccs1`, the Activity in the test on Candida albicans [19] is on record as 50%.

Take `CCN(C(=S)NC(=O)c1cccs1)C(C)C`: the values for the Activity in the test on Candida albicans [19] and in the test on Nakaseomyces glabratus were 53% and 43%, respectively.

As for `CCN(C(=S)NC(=O)c1ccc(C)s1)C(C)C`, the Activity is on record as 57% in the test on Aspergillus flavus [17] and 62% in the test on Nakaseomyces glabratus.

For the molecule `Oc1ccccc1/N=N/c1ccc(O)c2ccccc12`, the MIC in the test on Aspergillus flavus [20] was 6.25 µg/mL (≈ 23.6 µM); with Candida albicans [21], 50 µg/mL (≈ 189 µM); in the test on Candida albicans [22], 6.25 µg/mL (≈ 23.6 µM); in the test on Aspergillus flavus [23] it was 6.25 µg/mL (≈ 23.6 µM).

Regarding `Oc1ccccc1/C=N/c1ccc(Cn2cncn2)cc1`, the MIC with Candida albicans [18] came to 12.5 µg/mL (≈ 44.9 µM).
